Drawing on patent US12577227B2, “WDR5 inhibitors and modulators” (Vanderbilt University, priority 2019, dated 2026), this text covers GI50 for 23 compounds.

In this test the test system is MV4:11 human cancer cell lines. Briefly: Cellular viability / anti-proliferative activity (CellTiter-Glo). It counts as cell-based. The note with it: MV4-11, 120 h, MV-4-11 cells, 5 day protocol, mean of minimum two replicates, read-out: GI50 on cellular proliferation of MV4:11 human cancer cell lines. The procedure:
Cellular Viability of Human Tumor Cell Lines
Anti-Proliferative Activity Using MLL-Harboring Cell Lines.
MV-4-11 and K562 cells are grown in IMDM media supplemented with 10% FBS and […], Molm-13 cells are cultured in RPMI-1640 media supplemented with 10% FBS and 1% o penicillin/streptomycin. Viability assays are performed by dispensing 200 cells at 7200 cells/mL into each well of an opaque 384-well plate and adding compounds at the indicated concentrations in a final volume of 32 μL and a final concentration of DMSO of 0.3% for all samples. A certain range of compound concentrations is made through a series of 2-fold dilutions starting 30 μM at the highest, total 22 dilutions. After a set incubation period, 5 day protocol, the viability of cells in each well is assessed using the CellTiter-Glo assay (Promega), read on a 96 Microplane Luminometer (Cytation 3, BioTek). Serial dilutions of each cell type are performed in all assays to generate standard curves and the final densities of cells are determined within the dynamic range of the instrument. GI50 values are calculated based on XLfit software (IDBS, Guildford, UK) with Sigmoidal Dose-Response Model. Each compound is tested in minimum of two replicates. Data are expressed as mean.
Background: In ATP-based viability assays light output follows the ATP content of the culture.
`CCc1nccn1Cc1cc2c(c(-c3cn(C)nc3C(F)(F)F)c1)OCCN(Cc1cc(C)cc(C)n1)C2=O` [Example 38, 4-((4,6-Dimethylpyridin-2-yl)methyl)-7-((2-ethyl-1H-imidazol-1-yl)methyl)-9-(1-methyl-3-(trifluoromethyl)-1H-pyrazol-4-yl)-3,4-dihydrobenzo[f][1,4]oxazepin-5(2H)-one]: the GI50 came to 262 nM.
For `COc1cc(CN2C[C@H](C)Oc3c(cc(Cn4ccnc4C)cc3-c3ccc(F)cc3C)C2=O)cc(OC)c1` [Example 36, (S)-4-(3,5-Dimethoxybenzyl)-9-(4-fluoro-2-methylphenyl)-2-methyl-7-((2-methyl-1H-imidazol-1-yl)methyl)-3,4-dihydrobenzo[f][1,4]oxazepin-5(2H)-one] the value was 2430 nM.
For `COc1cc(CN2CCOc3c(cc(Cn4ccoc4=N)cc3-c3ccc(F)cc3C)C2=O)cc(OC)c1` [Example 9, 4-(3,5-Dimethoxybenzyl)-9-(4-fluoro-2-methylphenyl)-7-((2-iminooxazol-3(2H)-yl)methyl)-3,4-dihydrobenzo[f][1,4]oxazepin-5(2H)-one] the value was 259 nM.
For `Cc1cc(C)nc(CN2CCOc3c(cc(Cn4ccnc4C)cc3-c3cc(C)c(F)cc3C)C2=O)c1` [Example 51, 4-((4,6-Dimethylpyridin-2-yl)methyl)-9-(4-fluoro-2,5-dimethylphenyl)-7-((2-methyl-1H-imidazol-1-yl)methyl)-3,4-dihydrobenzo[f][1,4]oxazepin-5(2H)-one] the value was 79 nM; for `CCc1cc(C(=O)NC)c2nccc(N3CCOc4c(cc(Cn5ccnc5)cc4-c4cn(C)nc4C(F)(F)F)C3=O)c2c1` [Example 72, 4-(7-((1H-imidazol-1-yl)methyl)-9-(1-methyl-3-(trifluoromethyl)-1H-pyrazol-4-yl)-5-oxo-2,3-dihydrobenzo[f][1,4]oxazepin-4(5H)-yl)-6-ethyl-N-methylquinoline-8-carboxamide], 494 nM; for `COc1cc(CN2CCOc3c(cc(CNc4ccccn4)cc3-c3ccc(F)cc3C)C2=O)cc(OC)c1` [Example 10, 4-(3,5-Dimethoxybenzyl)-9-(4-fluoro-2-methylphenyl)-7-((pyridin-2-ylamino)methyl)-3,4-dihydrobenzo[f][1,4]oxazepin-5(2H)-one], over 940 nM.
For `CCn1cc(-c2cc(Cn3ccnc3C)cc3c2OCCN([C@H](c2cc(OC)ccn2)C2CC2)C3=O)c(C(F)(F)F)n1` [Example 60, (S)-4-(Cyclopropyl(4-methoxypyridin-2-yl)methyl)-9-(1-ethyl-3-(trifluoromethyl)-1H-pyrazol-4-yl)-7-((2-methyl-1H-imidazol-1-yl)methyl)-3,4-dihydrobenzo[f][1,4]oxazepin-5(2H)-one], the GI50 was 111 nM.
Regarding `CCc1cc(C(=O)NCCN(C)C)c2nccc(N3CCOc4c(cc(Cn5ccnc5)cc4-c4cn(C)nc4C(F)(F)F)C3=O)c2c1` [Example 73, 4-(7-((1H-imidazol-1-yl)methyl)-9-(1-methyl-3-(trifluoromethyl)-1H-pyrazol-4-yl)-5-oxo-2,3-dihydrobenzo[f][1,4]oxazepin-4(5H)-yl)-N-(2-(dimethylamino)ethyl)-6-ethylquinoline-8-carboxamide], the GI50 stood at 255 nM.
For `COc1ccnc([C@H](C)N2CCOc3c(cc(Cn4cnn(C)c4=N)cc3-c3ccc(F)cc3Cl)C2=O)c1` [Example 54, (S)-9-(2-Chloro-4-fluorophenyl)-7-((5-imino-1-methyl-1,5-dihydro-4H-1,2,4-triazol-4-yl)methyl)-4-(1-(4-methoxypyridin-2-yl)ethyl)-3,4-dihydrobenzo[f][1,4]oxazepin-5(2H)-one] the value was 9 nM; for `Cc1ccnc(CN2C[C@@H](C)Oc3c(cc(Cn4ccnc4C)cc3-c3cn(C)nc3C(F)(F)F)C2=O)c1` [Example 40, (R)-2-Methyl-7-((2-methyl-1H-imidazol-1-yl)methyl)-9-(1-methyl-3-(trifluoromethyl)-1H-pyrazol-4-yl)-4-((4-methylpyridin-2-yl)methyl)-3,4-dihydrobenzo[f][1,4]oxazepin-5(2H)-one], 529 nM.
In the case of `COc1ccnc(CN2CCOc3c(cc(Cn4ccn(C)c4=N)cc3-c3ccc(F)cc3C)C2=O)c1` [Example 13, 9-(4-Fluoro-2-methylphenyl)-7-((2-imino-3-methyl-2,3-dihydro-1H-imidazol-1-yl)methyl)-4-((4-methoxypyridin-2-yl)methyl)-3,4-dihydrobenzo[f][1,4]oxazepin-5(2H)-one], the GI50 was found to be 12 nM.
The figure for `COc1cc(CN2CC(=O)Nc3c(cc(Cn4ccn(C)c4=N)cc3-c3ccc(F)cc3C)C2=O)cc(OC)c1` [Example 14, 4-(3,5-Dimethoxybenzyl)-9-(4-fluoro-2-methylphenyl)-7-((2-imino-3-methyl-2,3-dihydro-1H-imidazol-1-yl)methyl)-3,4-dihydro-1H-benzo[e][1,4]diazepine-2,5-dione] is 167 nM.
With `COc1ccnc([C@H](C)N2CCOc3c(cc(Cn4ccnc4C)cc3-c3cn(C)nc3C(F)(F)F)C2=O)c1` [Example 47, (S)-4-(1-(4-Methoxypyridin-2-yl)ethyl)-7-((2-methyl-1H-imidazol-1-yl)methyl)-9-(1-methyl-3-(trifluoromethyl)-1H-pyrazol-4-yl)-3,4-dihydrobenzo[f][1,4]oxazepin-5(2H)-one], the GI50 was determined as 31 nM.
The figure for `Cc1cc(C)nc(CN2CCOc3c(cc(Cn4ccnc4C)cc3-c3ccccc3C)C2=O)c1` [Example 45, 4-((4,6-Dimethylpyridin-2-yl)methyl)-7-((2-methyl-1H-imidazol-1-yl)methyl)-9-(o-tolyl)-3,4-dihydrobenzo[f][1,4]oxazepin-5(2H)-one] is 157 nM.
Take `CCn1cc(-c2cc(Cn3ccnc3)cc3c(=O)n([C@H](c4cc(OC)ccn4)C4CC4)cnc23)c(C(F)(F)F)n1` [Example 62, (S)-6-((1H-imidazol-1-yl)methyl)-3-(cyclopropyl(4-methoxypyridin-2-yl)methyl)-8-(1-ethyl-3-(trifluoromethyl)-1H-pyrazol-4-yl)quinazolin-4(3H)-one]: the GI50 is 1380 nM.
In the case of `COc1cc(Cn2cnc3c(-c4cn(C)nc4C(F)(F)F)cc(Cn4ccn(C)c4=N)cc3c2=O)cc(OC)c1` [Example 20, 3-(3,5-Dimethoxybenzyl)-6-((2-imino-3-methyl-2,3-dihydro-1H-imidazol-1-yl)methyl)-8-(1-methyl-3-(trifluoromethyl)-1H-pyrazol-4-yl)quinazolin-4(3H)-one], the GI50 came to 630 nM.
For the compound `COc1cc(CN2C[C@@H](C)Oc3c(cc(Cn4ccn(C)c4=N)cc3-c3ccc(F)cc3C)C2=O)cc(OC)c1` [Example 33, (R)-4-(3,5-dimethoxybenzyl)-9-(4-fluoro-2-methylphenyl)-7-((2-imino-3-methyl-2,3-dihydro-1H-imidazol-1-yl)methyl)-2-methyl-3,4-dihydrobenzo[f][1,4]oxazepin-5(2H)-one], the GI50 stood at 130 nM.
The figure for `Cc1ccnc(CN2CCOc3c(cc(Cn4ccn(C)c4=N)cc3-c3ccc(F)cc3C)C2=O)c1` [Example 11, 9-(4-Fluoro-2-methylphenyl)-7-((2-imino-3-methyl-2,3-dihydro-1H-imidazol-1-yl)methyl)-4-((4-methylpyridin-2-yl)methyl)-3,4-dihydrobenzo[f][1,4]oxazepin-5(2H)-one] is 11 nM; for `Cc1cc(C)nc(CN2CCOc3c(cc(Cn4cnn(C)c4=N)cc3-c3cn(C)nc3C(F)(F)F)C2=O)c1` [Example 31, 4-((4,6-dimethylpyridin-2-yl)methyl)-7-((5-imino-1-methyl-1,5-dihydro-4H-1,2,4-triazol-4-yl)methyl)-9-(1-methyl-3-(trifluoromethyl)-1H-pyrazol-4-yl)-3,4-dihydrobenzo[f][1,4]oxazepin-5(2H)-one] it is 231 nM.
For the compound `CCn1cc(-c2cc(Cn3ccnc3)cc3c2OCCN([C@H](c2cc(OC)ccn2)C2CC2)C3=O)c(C(F)(F)F)n1` [Example 59, (S)-7-((1H-Imidazol-1-yl)methyl)-4-(cyclopropyl(4-methoxypyridin-2-yl)methyl)-9-(1-ethyl-3-(trifluoromethyl)-1H-pyrazol-4-yl)-3,4-dihydrobenzo[f][1,4]oxazepin-5(2H)-one], the GI50 stood at 108 nM.
With `COc1cc(CN2CCOc3c(cc(Cn4cnn(C)c4=N)cc3-c3ccc(F)cc3C)C2=O)cc(OC)c1` [Example 6, 4-(3,5-Dimethoxybenzyl)-9-(4-fluoro-2-methylphenyl)-7-((5-imino-1-methyl-1,5-dihydro-4H-1,2,4-triazol-4-yl)methyl)-3,4-dihydrobenzo[f][1,4]oxazepin-5(2H)-one], the GI50 came out at 86 nM.
For `Cc1cc(C)nc(CN2CCOc3c(cc(Cn4ccn(C)c4=N)cc3-c3cn(C)nc3C(F)(F)F)C2=O)c1` [Example 22, 4-((4,6-Dimethylpyridin-2-yl)methyl)-7-((2-imino-3-methyl-2,3-dihydro-1H-imidazol-1-yl)methyl)-9-(1-methyl-3-(trifluoromethyl)-1H-pyrazol-4-yl)-3,4-dihydrobenzo[f][1,4]oxazepin-5(2H)-one] the value was 173 nM; for `COc1cc(Cn2cnc3c(-c4ccc(F)cc4C)cc(Cn4ccoc4=N)cc3c2=O)cc(OC)c1` [Example 19, 3-(3,5-Dimethoxybenzyl)-8-(4-fluoro-2-methylphenyl)-6-((2-iminooxazol-3(2H)-yl)methyl)quinazolin-4(3H)-one], 7980 nM.
